Patent US7759382B2, “Acylated amino acid amidyl pyrazoles and related compounds” (Elan Pharmaceuticals, Inc., priority 2003, dated 2010)

Test system: β-amyloid peptide release and/or its synthesis
Test: inhibition of β-amyloid peptide release and/or its synthesis (test not specified)
Assay type: cell-based
Details: statement in words only; no assay or value given

| Structure (SMILES) | inhibits β-amyloid peptide release and/or its synthesis |
| --- | --- |
| CC(C)(C)c1cc(NC(=O)c2cccc(N(C=O)Cc3cc(F)cc(F)c3)c2)[nH]n1 [Example 110] | inhibits β-amyloid peptide release and/or its synthesis |
| CC(C)(C)c1cc(NC(=O)c2cccc(Nc3cc(F)cc(F)c3)c2)[nH]n1 [Example 111, N-(5-tert-Butyl-2H-pyrazol-3-yl)-3-(3,5-difluoro-phenylamino)-benzamide] | inhibits β-amyloid peptide release and/or its synthesis |
